In ChEMBL document CHEMBL5620384, “6-Regioisomeric 5,8-quinolinediones as potent CDC25 inhibitors against colorectal cancers” (Eur J Med Chem, 2023):
Active and inactive are the calls of the source. The rule behind the calls is not given here.

Legend:
HCT-116 [1] = experiment: Cytotoxicity against human HCT-116 cells assessed as cell survival measured at 2 uM after 72 hrs by MTS assay relative to control; format: functional; conditions: read-out: Activity
DLD-1 [2] = experiment: Cytotoxicity against human DLD-1 cells assessed as cell survival measured at 2 uM after 72 hrs by MTS assay relative to control; format: functional; conditions: read-out: Activity
SW480 = experiment: Cytotoxicity against human SW480 cells assessed as cell survival measured at 2 uM after 72 hrs by MTS assay relative to control; format: functional; conditions: read-out: Activity
U-87 MG = experiment: Cytotoxicity against human U-87 MG cells assessed as cell survival measured at 2 uM after 72 hrs by MTS assay relative to control; format: functional, U-87MG ATCC; conditions: read-out: Activity
MDA-MB-231 [3] = experiment: Cytotoxicity against human MDA-MB-231 cells assessed as cell survival measured at 2 uM after 72 hrs by MTS assay relative to control; format: functional; conditions: read-out: Activity
MCF7 = experiment: Cytotoxicity against human MCF7 cells assessed as cell survival measured at 2 uM after 72 hrs by MTS assay relative to control; format: functional; conditions: read-out: Activity
DLD-1 [4] = experiment: Cytotoxicity against human DLD1 cells assessed as growth inhibition after 72 hrs by MTS assay; format: functional, cell-based; conditions: DLD-1, 72 h
MDA-MB-231 [5] = experiment: Cytotoxicity against human MDA-MB-231 cells assessed as growth inhibition after 72 hrs by MTS assay; format: functional, cell-based; conditions: MDA-MB-231, 72 h
[6] = Cytotoxicity against human CCD-841CoN cells assessed as growth inhibition after 72 hrs by MTS assay; format: toxicity, cell-based
[7] = Cytotoxicity against human M10 cells assessed as growth inhibition after 72 hrs by MTS assay; format: toxicity, cell-based
[8] = Cytotoxicity against human MRC5 cells assessed as growth inhibition after 72 hrs by MTS assay; format: toxicity, cell-based
[9] = Cytotoxicity against human HEL 299 cells assessed as growth inhibition after 72 hrs by MTS assay; format: toxicity, cell-based
HCT-116 [10] = experiment: Induction of cell cycle arrest in human HCT-116 cells assessed as cells accumulation at S to G2 phase (T6-T8) at 2 uM measured upto 24 hrs by flow cytometry; format: functional, cell-based
HCT-116 [11] = experiment: Induction of cell cycle arrest in human HCT-116 cells assessed as cells accumulation at G2/M phase (T10-T24) at 2 uM measured upto 24 hrs by flow cytometry; format: functional, cell-based
DLD-1 [12] = experiment: Induction of cell cycle arrest in human DLD-1 cells assessed as reduced progression of S phase (T8) at 2 uM measured upto 24 hrs by flow cytometry; format: functional, cell-based
HCT-116 [13] = experiment: Effect on cell cycle progression in thymidine synchronized human HCT-116 cells assessed as suppression of CDK1 dephosphorylation in presence of colchicine at 2 uM by Western blot analysis; format: functional, cell-based
HCT-116 [14] = experiment: Effect on cell cycle progression in thymidine synchronized human HCT-116 cells assessed as prevention of cells entering from mitosis in presence of colchicine at 2 uM by Western blot analysis; format: functional, cell-based
HCT-116 [15] = experiment: Suppression of histone H4 methylation at K20 (H4K20me1) in thymidine synchronized human HCT-116 cells at 2 uM measured upto 8 hrs by Western blot analysis; format: functional, cell-based
HCT-116 [16] = experiment: Induction of DNA damaging in human HCT-116 cells assessed as CDK1Y15 dephosphorylation at 2 uM measured upto 8 hrs by Western blot analysis; format: functional, cell-based
HCT-116 [17] = experiment: Induction of DNA damaging in human HCT-116 cells assessed as H4K20 methylation at 2 uM measured upto 8 hrs by Western blot analysis; format: functional, cell-based
HCT-116 [18] = experiment: Induction of DNA damaging in human HCT-116 cells assessed as CHK1 phosphorylation at S345 at 2 uM measured upto 8 hrs by Western blot analysis; format: functional, cell-based
HCT-116 [19] = experiment: Induction of DNA damaging in human HCT-116 cells assessed as RPA2 phosphorylation at S33 at 2 uM measured upto 8 hrs by Western blot analysis; format: functional, cell-based
HCT-116 [20] = experiment: Induction of DNA damaging in human HCT-116 cells assessed as KAP-1 phosphorylation at S824 at 2 uM measured upto 8 hrs by Western blot analysis; format: functional, cell-based
HCT-116 [21] = experiment: Induction of DNA damaging in human HCT-116 cells assessed as CHK2 phosphorylation at T68 at 2 uM measured upto 8 hrs by Western blot analysis; format: functional, cell-based
HCT-116 [22] = experiment: Induction of DNA damaging in human HCT-116 cells assessed as RPA2 phosphorylation at S4/S8 at 2 uM measured upto 8 hrs by Western blot analysis; format: functional, cell-based
HCT-116 [23] = experiment: Induction of apoptosis in human HCT-116 cells assessed as reduction in number of cells at G1 phase at 1 uM measured after 72 hrs by flow cytometry; format: functional, cell-based
HCT-116 [24] = experiment: Induction of apoptosis in human HCT-116 cells assessed as reduction in number of cells at S phase at 1 uM measured after 72 hrs by flow cytometry; format: functional, cell-based
HCT-116 [25] = experiment: Induction of apoptosis in human HCT-116 cells assessed as reduction in number of cells at G2/M phase at 1 uM measured after 72 hrs by flow cytometry; format: functional, cell-based
HCT-116 [26] = experiment: Induction of apoptosis in human HCT-116 cells assessed as increase in number of cells at sub-G1 phase measured after 72 hrs by flow cytometry; format: functional, cell-based; conditions: dose 1-4 µM
HCT-116 [27] = experiment: Induction of apoptosis in human HCT-116 cells assessed as increase in caspase 3 at 1 uM measured after 72 hrs by flow cytometry; format: functional, cell-based
HCT-116 [28] = experiment: Induction of apoptosis in human HCT-116 cells assessed as increase in caspase 8 at 1 uM measured after 72 hrs by flow cytometry; format: functional, cell-based
HCT-116 [29] = experiment: Induction of apoptosis in human HCT-116 cells assessed as increase in caspase 9 at 1 uM measured after 72 hrs by flow cytometry; format: functional, cell-based
HCT-116 [30] = experiment: Induction of apoptosis in human HCT-116 cells assessed as decrease in MCL1 expression at 1 uM measured after 72 hrs by flow cytometry; format: functional, cell-based

SMILES: O=C1C(NCCN2CCOCC2)=C(Cl)C(=O)c2ncccc21
- viability at 2 µM (HCT-116 [1]): 0.85%
- viability at 2 µM (DLD-1 [2]): 1.86%
- viability at 2 µM (SW480): 16.7%
- viability at 2 µM (U-87 MG): 28%
- viability at 2 µM (MDA-MB-231 [3]): 93.2%
- viability at 2 µM (MCF7): 36.3%
- IC50 (DLD-1 [4]): 590 nM
- IC50 (MDA-MB-231 [5]): 440 nM
- IC50 at 72 h [6]: > 2000 nM
- IC50 at 72 h [7]: > 2000 nM
- IC50 at 72 h [8]: > 2000 nM
- IC50 at 72 h [9]: > 2000 nM
- Activity (HCT-116 [10]): Active
- Activity (HCT-116 [11]): Active
- Activity (DLD-1 [12]): Active
- Activity (HCT-116 [13]): Active
- Activity (HCT-116 [14]): Active
- Activity (HCT-116 [15]): Active
- Activity (HCT-116 [16]): Active
- Activity (HCT-116 [17]): Active
- Activity (HCT-116 [18]): Active
- Activity (HCT-116 [19]): Active
- Activity (HCT-116 [20]): Active
- Activity (HCT-116 [21]): Active
- Activity (HCT-116 [22]): Active
- Activity (HCT-116 [23]): Active
- Activity (HCT-116 [24]): Active
- Activity (HCT-116 [25]): Active
- Activity (HCT-116 [26]): Dose-Dependent Effect
- Activity (HCT-116 [27]): Active
- Activity (HCT-116 [28]): Active
- Activity (HCT-116 [29]): Active
- Activity (HCT-116 [30]): Active
